Reference: US11236129B2, “IL-17A binding peptides and medical uses thereof” (Dompe' Farmaceutici S.P.A., priority 2018, dated 2022)
“Also recorded” adds a separate entry of the source. Residues, ends and D or L forms follow the SMILES beside them.

How the values were obtained:
[1] = type: physicochemical; conditions: pH 7.8
Method in brief: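 Peptides dissolved in phosphate buffer pH 7.8 as 10 mM stocks (more dilute for less soluble ones) and stored at 25 °C. Content measured by reversed-phase UHPLC (C18, 0.5% formic acid water/acetonitrile gradient, DAD 220-400 nm, ESI-MS ion trap) after 1:100 dilution to 100 μM, against 100 μM standards, at T0, 3 days and 1 week.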

[2] = Isoelectric point, log D and log P (SiriusT3); type: physicochemical; conditions: for IP (isoelectric point): 25±1° C., 0.15 M KCl; for logP: octanol/ISA water, read-out: logP; for logD: pH 7.4, pH 7.4, octanol/ISA water, read-out: Log D (7.4)
mouse IL-17A = target: T1, mouse IL-17A (Mus musculus, UniProt Q62386); test: Peptide-IL-17A affinity test (SPR); type: binding
T1 sequence (Q62386 26-158): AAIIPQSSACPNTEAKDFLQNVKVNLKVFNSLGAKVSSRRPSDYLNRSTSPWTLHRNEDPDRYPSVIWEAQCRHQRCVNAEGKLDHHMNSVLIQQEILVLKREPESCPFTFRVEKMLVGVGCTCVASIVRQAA
Experimental: The peptide of the prior art HAP (SEQ ID NO:1) and peptide of SEQ ID NO:2 were tested for affinity for mIL-17A, as described below. For the immobilization of mouse IL-17A protein, amine coupling chemistry was used. […] Covalent immobilization of mIL17 results in stable attachment of 3000 RU of ligand to the surface. […] The molecules were diluted at different concentrations (from 62.5 to 1000 nM) in HBS-EP buffer and injected on the sensorchip for 4 minutes and allowed to dissociate for 5 minutes. After each run, the sensorchip was regenerated by 2 M NaCl injection. Based on the sensorgrams (FIG. 1, panel A) and using the BIAevaluation software, the Scatchard analysis of the RU values at equilibrium allowed to determine an affinity constant as a function of the analyte concentration in solution (FIG. 6, panel B).

[3] = target: IL-17RA/IL17RC dimerization induced by IL-17A (Homo sapiens, UniProt Q16552); test: IL-17RA/IL17RC dimerization assay in response to IL-17A (PathHunter Cytokine Receptor Assay); type: cell-based; conditions: IL-17A at EC80; read-out: IC50 in IL-17RA/IL7RC dimerization assay
Method in brief: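 PathHunter cells with IL-17RA and IL-17RC tagged for β-galactosidase complementation were preincubated 60 min with peptide (1% vehicle). IL-17A was then added at EC80 for 6–16 h at 37 °C, and chemiluminescence was read. Inhibition is relative to the EC80 and vehicle controls.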

[4] = tested on: Immortalized Human Corneal Epithelial cell line (I-HCEC); test: In vitro evaluation of expression of inflammatory cytokines in I-HCEC (real-time PCR); type: cell-based; conditions: 0.01-500 μM, 24 hours
[5] = tested on: human corneal epithelial cells (hCEPIC); test: Permeability test across stratified human corneal epithelial cells; type: in vitro ADME
Experimental: (§1) The objective of this study was to evaluate the apparent permeability coefficient (Papp) value of the peptides across stratified human corneal epithelial cells. All peptides were tested at 50 μM in duplicate.
(§2) In particular, human corneal epithelial cells (hCEPIC) were stratified on Transwell cell culture inserts (Corning, N.Y., USA). The permeation experiments were performed taking samples from receiver chambers at 5, 30, 60 minutes time points and from donor chambers at the same time points. Each aliquot collected was analyzed by HPLC instrument (Knauer) equipped with C18 Vertex Plus Column (Knauer) thermostatically controlled at 40° C. The rate (apparent permeability coefficient, Papp) of the study compounds was calculated and compared to the Papp values of the low and high permeability markers, 6-carboxyfluorescein and Rhodamine B, respectively.
(§3) The apparent permeability coefficient (Papp) was calculated according to Equation: Papp=(I/A*C0)(dM/dt)
(§4) where dM/dt is the flux (nanomoles per second) across the cell layers;
(§5) A (square centimeters) is the exposed surface area of the insert membrane;
(§6) C0 is the initial drug concentration (micromolar) in the donor compartment at t=0 (Xiang et al., Drug Metab Dispos. 2009 May; 37(5):992-8.

[6] = as above; type: in vitro ADME
Experimental: as §1, §2, §3, §4, §5, §6

human TH17 cells = test: Viability of human TH17 cells (Alamar blue); type: cell-based
Experimental: (§7) At 24 h following stimulation, culture supernatants were analyzed for expression of IL-17, IL-6, IL-23, MMP3 and examined for viability using the fluorescence viability dye, Alamar blue. The CD4 cells secreted high levels of IL-17A in response to stimulation with an activation cocktail, indicating successful differentiation into Th17 cells. Additionally, stimulated cells secreted IL-6, IL23 and MMP3.
(§8) Supernatant was removed and replaced with 200 μL of diluted peptide or vehicle (CGM+DMSO diluted as with TI concentration) in appropriate groups. Cells were incubated with peptide test items for 1 hour before stimulation. The following stimulation solutions were generated: 10× Cell Activation Cocktail: Diluted from 500× to 10× working solution in CGM. 22 μL of appropriate stimulants were added to wells 1 hr after TI addition. Finally, 25 μL of Alamar blue reagent (10×) was added to each well 20 hours after stimulant (4 hrs prior to 24 hr serum collection) to determine cell viability. 24 hrs After Stimulant, Alamar blue fluorescence was measured per manufacturer's instructions. Remaining Supernatants were collected for subsequent multiplex protein analyses. Expression levels of IL-6, IL-17, and IL-23 as well as MMP3 in 24 hour stimulated culture supernatants was evaluated using a Luminex Multiplex Platform on a MAGPIX instrument.

[7] = tested on: human differentiated TH17 cells; test: Cytokine and metalloproteinase secretion by human differentiated and activated TH17 cells; type: cell-based; conditions: 24 h after stimulation, supernatant
From the text: To evaluate the effect of the peptides of the invention on the target cells responsible for inflammation in ophtalmic or dermatological pathologies, we tested the ability of the peptide of SEQ ID NO: 18 to inhibit in vitro pro-inflammatory cytokines and metalloproteinases secretion by human Th17 cells.
Human primary CD4 T-cells were differentiated into Th17 cells in vitro by culturing the cells in Th17 differentiation medium for 10 days. In details, purified human peripheral blood CD4 T-cells were cultured in Th-17 differentiation medium (CellXVivo Human Th17, Tocris) per manufacturer's instructions. Briefly: 96-well tissue culture plates were coated with anti-CD3 and CD28 agonistic antibodies. Cells were counted via trypan blue exclusion and suspended at a concentration of 1E5 cells/ml in Th-17 differentiation medium. 0.2 mL of this suspension was plated into individual wells of a 96-well plate. Cells were incubated at 37° C. with 5% CO2 for 10 days, with media replaced as needed. Following 10-day Cell Differentiation, the peptides synthetized in Example 1, such as the peptide of Seq. ID No 18, were diluted to the appropriate concentration in CGM (cell growth medium, XVivo-15, Lonza). Cell plate was centrifuged at 300×g for 5 min, and Th17 differentiation medium was removed.
Following differentiation, the cells were stimulated with both an activation cocktail containing Phorbol 12-myristate 13-acetate and lonomycin in the presence of varying concentrations of test articles.
as §7
as §8, with “Remaining Supernatants were collected for subsequent multiplex protein analyses.” left out

Sequence of IL-17RA/IL17RC dimerization induced by IL-17A (Q16552 24-155): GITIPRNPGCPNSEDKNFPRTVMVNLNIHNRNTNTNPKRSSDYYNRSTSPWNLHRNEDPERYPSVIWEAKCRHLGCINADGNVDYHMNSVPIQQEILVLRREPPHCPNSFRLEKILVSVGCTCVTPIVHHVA

solubility [1] | IP (isoelectric point) [2] | logP [2] | logD [2] | affinity for mouse IL-17A relative to SEQ ID NO: 1 (mouse IL-17A; SPR) | Kd (mouse IL-17A; immobilized mIL-17A, 62.5 to 1000 nM peptide, read-out: Kdeq (SPR)) | IC50 [3] | Permeability (Papp ± SE) [5] | permeability compared to high permeability standard Rhodamine B (in words) [5] | Papp ([6]; Permeability (Papp ± SE)) | Papp ([6]; Permeability (Papp)) | Structure (SMILES) | expression of the measured inflammatory cytokines (IL-8, IL-6, TNF-α) [4] | cell viability (human TH17 cells) | secretion of IL-6 [7] | secretion of IL-17A [7] | secretion of IL-23 [7] | secretion of MMP3 [7]
> 10 mM | 5.14 | 0.99 | -0.56 | 28 fold | 130 nM | < 200 nM | 28.86 | good permeability | 28.8 ×10⁻⁶ cm/s | 28.9 ×10⁻⁶ cm/s | CC[C@H](C)[C@H](NC(=O)[C@H](Cc1c[nH]c2ccccc12)NC(=O)[C@H](CC(=O)O)NC(=O)[C@H](Cc1c[nH]c2ccccc12)NC(=O)[C@H](CC(C)C)NC(=O)[C@H](CC(=O)O)NC(=O)[C@H](C)NC(=O)[C@@H]1CCCN1C(=O)[C@@H](NC(=O)[C@@H](NC(=O)[C@@H](NC(=O)[C@H](Cc1c[nH]cn1)NC(=O)[C@@H](NC(C)=O)C(C)C)C(C)C)[C@@H](C)O)[C@@H](C)CC)C(=O)N[C@@H](CC(N)=O)C(=O)N[C@@H](CCCCN)C(N)=O [SEQ ID NO: 2] (Ac-VHVTIPADLWDWINK-NH2) | does not change the expression; also recorded: does not show any effect | – | – | – | – | –
≥ 0.05 mM | 3.55 | 1.89 | -3.79 | – | – | < 400 nM | – | – | – | – | CC[C@H](C)[C@H](NC(=O)[C@H](Cc1c[nH]c2ccccc12)NC(=O)[C@H](CCC(=O)O)NC(=O)[C@H](Cc1ccc(O)cc1)NC(=O)[C@H](CC(C)C)NC(=O)[C@H](CC(=O)O)NC(=O)[C@H](C)NC(=O)[C@@H]1CCCN1C(=O)[C@@H](NC(=O)[C@@H](NC(=O)[C@@H](NC(=O)[C@H](CCSC)NC(=O)[C@@H](NC(C)=O)C(C)C)C(C)C)[C@@H](C)O)[C@@H](C)CC)C(=O)N[C@@H](CCC(=O)O)C(=O)N[C@@H](CCC(=O)O)C(N)=O [SEQ ID NO: 18] (Ac-VMVTIPADLYEWIEE-NH2) | – | did not impair cell viability | significantly reduce | significantly reduce | significantly reduce | significantly reduce
